# Tests used:
# Mucor circinelloides = assay: MIC broth microdilution (CLSI); type: cell-based; conditions: Mucor circinelloides 80-14-240-5007
# Protocol: (§1) Antifungal susceptibility was determined by broth microdilution according to the CLSI guidelines described in M27-Ed4 ([16]).
# Rhizopus oryzae = assay: MIC broth microdilution (CLSI); type: cell-based; conditions: Rhizopus oryzae 04-14-364-1703
# Protocol: as §1
# Cryptococcus gattii [1] = assay: MIC broth microdilution (CLSI); type: cell-based; conditions: Cryptococcus gattii PNG27
# Protocol: as §1
# Fusarium oxysporum = assay: MIC broth microdilution (CLSI); type: cell-based; conditions: Fusarium oxysporum 07-200-3012
# Protocol: as §1
# Lomentospora prolificans [2] = assay: MIC broth microdilution (CLSI); type: cell-based; conditions: Lomentospora prolificans 80-16-101-2445
# Protocol: as §1
# Candida parapsilosis = assay: MIC broth microdilution (CLSI); type: cell-based; conditions: Candida parapsilosis ATCC 22018
# Protocol: Antifungal susceptibility was determined by broth microdilution according to the CLSI guidelines described in M27-Ed4 ([16]). […] MFC was determined by back-plating drug-treated cultures from MIC broths onto SDA plates. The MFC was defined as the lowest concentration from which no colonies could be cultured.
# Aspergillus niger [3] = assay: MIC broth microdilution (CLSI); type: cell-based; conditions: Aspergillus niger 111
# Protocol: as §1
# Aspergillus terreus [4] = assay: MIC broth microdilution (CLSI); type: cell-based; conditions: Aspergillus terreus 75-16-089-2500
# Protocol: as §1
# Aspergillus lentulus [5] = assay: MIC broth microdilution (CLSI); type: cell-based; conditions: Aspergillus lentulus DTO 341-G7
# Protocol: as §1
# Aspergillus felis = assay: MIC broth microdilution (CLSI); type: cell-based; conditions: Aspergillus felis IHE87256683D6
# Protocol: as §1
# Aspergillus parafelis = assay: MIC broth microdilution (CLSI); type: cell-based; conditions: Aspergillus parafelis DTO 341-F2
# Protocol: as §1
# [6] = tested on: Aspergillus frankstonensis; assay: MIC broth microdilution (CLSI); type: cell-based; conditions: Aspergillus frankstonensis DTO 341-F3
# Protocol: as §1
# Epidermophyton floccosum [7] = assay: MIC broth microdilution (CLSI); type: cell-based; conditions: Epidermophyon floccosum R-113
# Protocol: as §1
# Paraphyton cookei = assay: MIC broth microdilution (CLSI); type: cell-based; conditions: Paraphyton cookei R-639
# Protocol: as §1
# Cryptococcus gattii [8] = assay: checkerboard drug interaction (FICI, MICc); type: cell-based;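 note: simplified diagonal checkerboard screen pairing antifungals with FPPS inhibitors, FICI computed under the Loewe additivity model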
# Protocol: (§2) Drug interactions between antifungals and FPPS inhibitors were investigated using a simplified checkerboard diagonal screening method ([45]). […] FICIs were determined according to the Loewe additivity model ([17]).
# Cryptococcus tetragattii = assay: checkerboard drug interaction (FICI, MICc); type: cell-based;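 note: simplified diagonal checkerboard screen pairing antifungals with FPPS inhibitors, with FICI calculated under the Loewe additivity model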
# Protocol: as §2
# [9] = tested on: Cryptococcus deneoformans; assay: checkerboard drug interaction (FICI, MICc); type: cell-based;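 note: simplified diagonal checkerboard screen pairing antifungals with FPPS inhibitors, FICI calculated under the Loewe additivity model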
# Protocol: as §2
# Fusarium solani [10] = assay: checkerboard drug interaction (FICI, MICc); type: cell-based;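 note: simplified diagonal checkerboard screen pairing antifungals with FPPS inhibitors, FICI derived under the Loewe additivity model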
# Protocol: as §2
# Pichia kudriavzevii = assay: checkerboard drug interaction (FICI, MICc); type: cell-based;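 note: antifungal plus FPPS inhibitor interactions tested in a simplified diagonal checkerboard screen, with FICI calculated under the Loewe additivity model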
# Protocol: as §2
# Candida tropicalis = assay: checkerboard drug interaction (FICI, MICc); type: cell-based;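 note: simplified diagonal checkerboard screen of antifungal plus FPPS inhibitor combinations, with FICI computed by the Loewe additivity model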
# Protocol: as §2
# Candida dubliniensis = assay: checkerboard drug interaction (FICI, MICc); type: cell-based;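 note: simplified diagonal checkerboard screen pairing antifungals with FPPS inhibitors, FICI calculated under the Loewe additivity model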
# Protocol: as §2
# Aspergillus niger [11] = assay: checkerboard drug interaction (FICI, MICc); type: cell-based;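 note: simplified diagonal checkerboard screen pairing antifungals with FPPS inhibitors, FICI calculated under the Loewe additivity model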
# Protocol: as §2
# Aspergillus terreus [12] = assay: checkerboard drug interaction (FICI, MICc); type: cell-based;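 note: simplified diagonal checkerboard screen pairing antifungals with FPPS inhibitors, FICI derived by the Loewe additivity model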
# Protocol: as §2
# Aspergillus lentulus [13] = assay: checkerboard drug interaction (FICI, MICc); type: cell-based;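 note: simplified diagonal checkerboard screen pairing antifungals with FPPS inhibitors, with the interaction index calculated under the Loewe additivity model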
# Protocol: as §2
# Microsporum canis = assay: checkerboard drug interaction (FICI, MICc); type: cell-based;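 note: simplified diagonal checkerboard screen pairing antifungals with FPPS inhibitors, FICI calculated under the Loewe additivity model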
# Protocol: as §2
# Nannizzia nana = assay: checkerboard drug interaction (FICI, MICc); type: cell-based
# Protocol: as §2
# Trichophyton tonsurans [14] = assay: checkerboard drug interaction (FICI, MICc); type: cell-based;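 note: simplified diagonal checkerboard screen combining antifungals with FPPS inhibitors, with FICI calculated under the Loewe additivity model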
# Protocol: as §2
# Trichophyton soudanense = assay: checkerboard drug interaction (FICI, MICc); type: cell-based;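 note: simplified diagonal checkerboard screen pairing antifungals with FPPS inhibitors, FICI computed under the Loewe additivity model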
# Protocol: as §2
# Fusarium solani [15] = assay: MIC broth microdilution (CLSI); conditions: Fusarium solani 04-16-056-1862
# Protocol: as §1
# Trichophyton tonsurans [16] = assay: MIC broth microdilution (CLSI); conditions: Trichophyton tonsurans R-168
# Protocol: as §1
# Lomentospora prolificans [17] = assay: checkerboard drug interaction (FICI, MICc)
# Protocol: as §2
# [18] = tested on: Aspergillus frankstonensis; assay: checkerboard drug interaction (FICI, MICc);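 note: simplified diagonal checkerboard screen pairing antifungals with FPPS inhibitors, FICI calculated using the Loewe additivity model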
# Protocol: as §2
# Epidermophyton floccosum [19] = assay: checkerboard drug interaction (FICI, MICc)
# Protocol: as §2
# Nannizzia gypsea = assay: checkerboard drug interaction (FICI, MICc);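 note: simplified diagonal checkerboard screen pairing antifungals with FPPS inhibitors, FICI derived using the Loewe additivity model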
# Protocol: as §2
compound,measurement,setting,value
C[C@@H](c1ncncc1F)[C@](O)(Cn1cncn1)c1ccc(F)cc1F [VOR],MIC / MEC,Mucor circinelloides,8 µg/mL
same,MIC / MEC,Rhizopus oryzae,16 µg/mL
same,MIC / MEC,Cryptococcus gattii [1],0.06 µg/mL
same,MIC / MEC,Fusarium oxysporum,4 µg/mL
same,MIC / MEC,Lomentospora prolificans [2],16 µg/mL
same,MIC / MEC,Candida parapsilosis,0.13 µg/mL
same,MIC / MEC,Aspergillus niger [3],1 µg/mL
same,MIC / MEC,Aspergillus terreus [4],0.25 µg/mL
same,MIC / MEC,Aspergillus lentulus [5],4 µg/mL
same,MIC / MEC,Aspergillus felis,2 µg/mL
same,MIC / MEC,Aspergillus parafelis,8 µg/mL
same,MIC / MEC,[6],2 µg/mL
same,MIC / MEC,Epidermophyton floccosum [7],0.25 µg/mL
same,MIC / MEC,Paraphyton cookei,0.5 µg/mL
same,antifungal MICc,Cryptococcus gattii [8]; in combination with 10-ZOL,0.033
same,antifungal MICc,Cryptococcus gattii [8]; in combination with ZOL,0.06
same,antifungal MICc,Cryptococcus tetragattii; in combination with 10-ZOL,0.063
same,antifungal MICc,Cryptococcus tetragattii; in combination with ZOL,0.125
same,antifungal MICc,[9]; in combination with 10-ZOL,0.063
same,antifungal MICc,[9]; in combination with ZOL,0.0625
same,antifungal MICc,Fusarium solani [10]; in combination with 10-ZOL,0.5
same,antifungal MICc,Fusarium solani [10]; in combination with ZOL,1
same,antifungal MICc,Pichia kudriavzevii; in combination with 10-ZOL,0.5
same,antifungal MICc,Pichia kudriavzevii; in combination with ZOL,1
same,antifungal MICc,Candida tropicalis; in combination with 10-ZOL,0.032
same,antifungal MICc,Candida tropicalis; in combination with ZOL,0.0625
same,antifungal MICc,Candida dubliniensis; in combination with 10-ZOL,0.033
same,antifungal MICc,Candida dubliniensis; in combination with ZOL,0.0125
same,antifungal MICc,Aspergillus niger [11]; in combination with 10-ZOL,0.13
same,antifungal MICc,Aspergillus niger [11]; in combination with ZOL,1
same,antifungal MICc,Aspergillus terreus [12]; in combination with 10-ZOL,0.25
same,antifungal MICc,Aspergillus terreus [12]; in combination with ZOL,0.125
same,antifungal MICc,Aspergillus lentulus [13]; in combination with 10-ZOL,0.5
same,antifungal MICc,Aspergillus lentulus [13]; in combination with ZOL,0.5
same,antifungal MICc,Microsporum canis; in combination with 10-ZOL,0.031
same,antifungal MICc,Microsporum canis; in combination with ZOL,0.015
same,antifungal MICc,Nannizzia nana; in combination with 10-ZOL,0.0625
same,antifungal MICc,Nannizzia nana; in combination with ZOL,0.0625
same,antifungal MICc,Trichophyton tonsurans [14]; in combination with 10-ZOL,0.063
same,antifungal MICc,Trichophyton tonsurans [14]; in combination with ZOL,0.0625
same,antifungal MICc,Trichophyton soudanense; in combination with 10-ZOL,0.063
same,antifungal MICc,Trichophyton soudanense; in combination with ZOL,0.03125
same,MIC / MEC,Fusarium solani [15],1 µg/mL
same,MIC / MEC,Trichophyton tonsurans [16],0.13 µg/mL
same,antifungal MICc,Lomentospora prolificans [17]; in combination with 10-ZOL,2
same,antifungal MICc,Lomentospora prolificans [17]; in combination with ZOL,16
same,antifungal MICc,[18]; in combination with 10-ZOL,4
same,antifungal MICc,[18]; in combination with ZOL,2
same,antifungal MICc,Epidermophyton floccosum [19]; in combination with 10-ZOL,0.032
same,antifungal MICc,Epidermophyton floccosum [19]; in combination with ZOL,0.25
same,antifungal MICc,Nannizzia gypsea; in combination with 10-ZOL,0.25
same,antifungal MICc,Nannizzia gypsea; in combination with ZOL,0.0625
"CCC(C)n1ncn(-c2ccc(N3CCN(c4ccc(OCC5COC(Cn6cncn6)(c6ccc(Cl)cc6Cl)O5)cc4)CC3)cc2)c1=O (centres unmarked) [ITR, itraconazole]",MIC / MEC,Mucor circinelloides,0.5 µg/mL
same,MIC / MEC,Rhizopus oryzae,2 µg/mL
same,MIC / MEC,Cryptococcus gattii [1],0.25 µg/mL
same,MIC / MEC,Fusarium oxysporum,4 µg/mL
same,MIC / MEC,Lomentospora prolificans [2],4 µg/mL
same,MIC / MEC,Candida parapsilosis,0.25 µg/mL
same,MIC / MEC,Aspergillus niger [3],2 µg/mL
same,MIC / MEC,Aspergillus terreus [4],0.5 µg/mL
same,MIC / MEC,Aspergillus lentulus [5],2 µg/mL
same,MIC / MEC,Aspergillus felis,2 µg/mL
same,MIC / MEC,Aspergillus parafelis,8 µg/mL
same,MIC / MEC,[6],2 µg/mL
same,MIC / MEC,Epidermophyton floccosum [7],1 µg/mL
same,MIC / MEC,Paraphyton cookei,2 µg/mL
same,antifungal MICc,Cryptococcus gattii [8]; in combination with 10-ZOL,0.125
same,antifungal MICc,Cryptococcus gattii [8]; in combination with ZOL,0.125
same,antifungal MICc,Cryptococcus tetragattii; in combination with 10-ZOL,0.25
same,antifungal MICc,Cryptococcus tetragattii; in combination with ZOL,1
same,antifungal MICc,[9]; in combination with 10-ZOL,0.063
same,antifungal MICc,[9]; in combination with ZOL,0.125
same,antifungal MICc,Fusarium solani [10]; in combination with 10-ZOL,1
same,antifungal MICc,Fusarium solani [10]; in combination with ZOL,0.5
same,antifungal MICc,Pichia kudriavzevii; in combination with 10-ZOL,1
same,antifungal MICc,Pichia kudriavzevii; in combination with ZOL,0.25
same,antifungal MICc,Candida tropicalis; in combination with 10-ZOL,0.125
same,antifungal MICc,Candida tropicalis; in combination with ZOL,0.062
same,antifungal MICc,Candida dubliniensis; in combination with 10-ZOL,0.033
same,antifungal MICc,Candida dubliniensis; in combination with ZOL,0.03125
same,antifungal MICc,Aspergillus niger [11]; in combination with 10-ZOL,0.25
same,antifungal MICc,Aspergillus niger [11]; in combination with ZOL,1
same,antifungal MICc,Aspergillus terreus [12]; in combination with 10-ZOL,0.25
same,antifungal MICc,Aspergillus terreus [12]; in combination with ZOL,0.13
same,antifungal MICc,Aspergillus lentulus [13]; in combination with 10-ZOL,0.25
same,antifungal MICc,Aspergillus lentulus [13]; in combination with ZOL,0.5
same,antifungal MICc,Microsporum canis; in combination with 10-ZOL,0.063
same,antifungal MICc,Microsporum canis; in combination with ZOL,0.25
same,antifungal MICc,Nannizzia nana; in combination with 10-ZOL,0.25
same,antifungal MICc,Nannizzia nana; in combination with ZOL,0.13
same,antifungal MICc,Trichophyton tonsurans [14]; in combination with 10-ZOL,0.25
same,antifungal MICc,Trichophyton tonsurans [14]; in combination with ZOL,0.25
same,antifungal MICc,Trichophyton soudanense; in combination with 10-ZOL,0.25
same,antifungal MICc,Trichophyton soudanense; in combination with ZOL,0.25
same,MIC / MEC,Fusarium solani [15],2 µg/mL
same,MIC / MEC,Trichophyton tonsurans [16],1 µg/mL
same,antifungal MICc,Lomentospora prolificans [17]; in combination with 10-ZOL,1
same,antifungal MICc,Lomentospora prolificans [17]; in combination with ZOL,2
same,antifungal MICc,[18]; in combination with 10-ZOL,1
same,antifungal MICc,[18]; in combination with ZOL,2
same,antifungal MICc,Epidermophyton floccosum [19]; in combination with 10-ZOL,0.5
same,antifungal MICc,Epidermophyton floccosum [19]; in combination with ZOL,0.5
same,antifungal MICc,Nannizzia gypsea; in combination with 10-ZOL,2
same,antifungal MICc,Nannizzia gypsea; in combination with ZOL,0.5

# — article PMC12892976, “Alkylation-based optimization of antifungal FPPS inhibitors yields a potent, broad-spectrum lipophilic zoledronate derivative” (mBio, 2025)
